Results reported in US20260008801A1, “BIO-BASED SURFACTANTS DERIVED FROM CARBOHYDRATES” (COÖPERATIE KONINKLIJKE COSUN U.A., priority 2022, published 2026).
Read-outs that look alike come from different tables or passages of the source.

Legend:
Type in all cases: physicochemical
[1] = Foaming abilities, 1% compound solutions shaken by hand; set-up: key to FOAM: −: no foam formation; +: low foam formation; ++: moderate foam formation; +++: strong foam formation
Description: Foaming abilities were evaluated at room temperature by shaking 1% compound solutions (2 ml) of pH 3, 7, and 12 by hand for 10 s. The pH of each solution was assessed with a pH meter at room temperature. […] The foam heights at the initial time were compared to one another after which the foaming abilities were classified according to no foam formation (−), low foam formation (+), moderate foam formation (++), and strong foam formation (+++).

[2] = Surface tension measurements, Wilhelmy plate (surface tension, CMC)
Description: Surface tension measurements were performed with a Biolin Scientific Sigma701 automatic tension meter equipped with a Wilhelmy plate made of platinum (±0.5 mN/m). […] The number of experimental points is related to the compound's/surfactant's solubility and available quantity. All compound/surfactant solutions were allowed to stand 12 h before being measured. The platinum plate was thoroughly cleaned with demi water and flame-dried before each measurement. The CMC of each compound/surfactant was determined at the minimum of a breakpoint of a conventional plot of surface tension versus compound/surfactant concentration. DCMC was obtained by acquiring the surface tension at the CMC. The pC20 value was determined by taking the minus log of the concentration compound/surfactant at a surface tension of 52 mN/m.

[3] = Solubility in water (excess of compound in 4 ml demi water); conditions: for Solubility: Table E5.2, water
Description: Solubility is preferably solubility in aqueous solution, more preferably solubility in water, most preferably solubility in demineralised water. A skilled person knows how to assess such solubility.
Solubility in water was determined by preparing mixtures of an excess of compound dispersed in 4 ml demi water using a vortex at maximum speed for 1 min. […] 1 ml of the mixture was concentrated in vacuo to yield a solid. The mass of the solid was determined in mg to calculate the solubility in percentage by dividing by ten.

[4] = Foaming power and stability, Ultra-Turrax, 0.4% aq. surfactant; conditions: Table E5.2; for Foamability (mL) after (min) 1: foam volume after 1 min; for Foamability (mL) after (min) 5: foam volume after 5 min; for Foamability (mL) after (min) 10: foam volume after 10 min
Description: Foaming power was also tested at room temperature with 5 mL of 0.4% aq. surfactant (20 mg) solution in a 50 mL measuring cylinder. After performing the Ultra-Turrax (a registered trademark for a high-performance dispersing instrument) for 20 seconds (8000 rpm), the initial height of the foam was measured for foam height. (volume in mL). Every time step of, 1, 3, 5, 10, 30, 60 minutes was noted. In addition, after 24 hours the stability was checked. Particularly, foaming power and stability of the surfactants were performed using an IKA Ultra-Turrax T25 with an 18 G dispersing element. At room temperature, an aqueous solution of 5 mL 0.4% surfactant in a 50 mL measuring cylinder (2.20 cm diameter) was mixed with the Ultra-Turrax for 20 seconds at 8000 rpm. The foam height (volume in mL) was denoted for 0, 1, 3, 5, 10, 30, 60 min and 24 hours. In addition, after 24 hours the stability was checked.

[5] = Table E2, room temperature, pH 7
[6] = Table E2, galactaric acid amides
[7] = Table E4, room temperature, pH 7
[8] = Table E5, room temperature, pH 7

Molecule: 1-(N-(decanoic acid))-L-arabinonamide [Compound 06]
- foaming behaviour / foam creation, in words [1]: does not create foam

Molecule: CC(C)CNC(=O)[C@H](O)[C@@H](O)[C@@H](O)CO [Compound 05, 1-(N-isobutyl)-L-arabinonamide]
- FOAM ([1]; Table E1): −
- stable surface tension value at maximal concentration (micelle formation) ([2]; maximal concentration in water, means no micelles were formed): do not reach a stable surface tension value
- solubility in water, in words [3]: soluble
- SOLUBILITY (H2O) ([3]; Table E1, arabinonamides): Yes

Molecule: CCCCNC(=O)[C@H](O)[C@@H](O)[C@@H](O)[C@H](O)C(=O)O [Compound 09]
- FOAM ([1]; Table E2): −
- SURFACE TENSION [2, 5]: 50.78 mN/m
- solubility in H2O [3]: 6%
- SOLUBILITY (H2O) [3, 6]: >6%

Molecule: CCCCCCNC(=O)[C@H](O)[C@@H](O)[C@@H](O)[C@H](O)C(=O)O [Compound 10]
- FOAM ([1]; Table E2): −
- SURFACE TENSION [2, 5]: 49.43 mN/m
- solubility in H2O [3]: 2.5%
- SOLUBILITY (H2O) [3, 6]: ~2.5%

Molecule: CCCCCCCCNC(=O)[C@H](O)[C@@H](O)[C@@H](O)[C@H](O)C(=O)O [Compound 11]
- foam stability compared with SLES [1]: quite similar
- foaming behaviour / foam creation, in words [1]: Foam appears
- FOAM ([1]; Table E2): ++
- SURFACE TENSION [2]: 26 mN/m
- concentration at which the surface tension is reached [2]: 0.29%
- CMC (%) ([2]; Table E2): 0.17%
- SURFACE TENSION [2, 5]: 26.0 mN/m
- solubility in H2O [3]: 2%
- SOLUBILITY (H2O) [3, 6]: ~2.0%

Molecule: CCCCCCCCCCNC(=O)[C@H](O)[C@@H](O)[C@@H](O)[C@H](O)C(=O)O [Compound 12]
- FOAM ([1]; Table E2): ++
- solubility in water, in words [3]: relatively low
- SOLUBILITY (H2O) [3, 6]: <1%

Molecule: CCCCCCCCCCCCNC(=O)[C@H](O)[C@@H](O)[C@@H](O)[C@H](O)C(=O)O [Compound 13]
- FOAM ([1]; Table E2): −
- solubility in water, in words [3]: relatively low

Molecule: CCCCCCN(C)C[C@H](O)[C@@H](O)[C@@H](O)CO [Compound 23, N-methyl-N-hexyl-L-arabinamine]
- FOAM ([1]; Table E4, pH > 7): +
- Foamability (mL) after (min) 1 [4]: 2 mL
- Foamability (mL) after (min) 5 [4]: 0.2 mL
- Foamability (mL) after (min) 10 [4]: 0 mL
- CMC (%) ([2]; Table E4): 2%
- SURFACE TENSION [2, 7]: 31.4 mN/m
- CMC (%) ([2]; Table E5.2): 2%
- Surface tension (nM/m) ([2]; Table E5.2): 31.4 mN/m
- solubility in H2O [3]: 30%
- SOLUBILITY (H2O) ([3]; Table E4): 30%
- Solubility [3]: 30%

Molecule: CCCCCCCCN(C)C[C@H](O)[C@@H](O)[C@@H](O)CO [Compound 24, N-methyl-N-octyl-L-arabinamine]
- FOAM ([1]; Table E4, pH > 7): +
- Foamability (mL) after (min) 1 [4]: 5 mL
- Foamability (mL) after (min) 5 [4]: 4.5 mL
- Foamability (mL) after (min) 10 [4]: 4 mL
- CMC (%) ([2]; Table E4): 0.25%
- SURFACE TENSION [2, 7]: 28.7 mN/m
- CMC (%) ([2]; Table E5.2): 0.25%
- Surface tension (nM/m) ([2]; Table E5.2): 28.7 mN/m
- SOLUBILITY (H2O) ([3]; Table E4): 0.9%
- Solubility [3]: 0.9%
- solubility, earlier measurements ([3]; earlier measurements, initially found): 0.25%

Molecule: CCCCCCCCCCN(C)C[C@@H](O)[C@@H](O)[C@H](O)CO [Compound 24b, N-methyl-N-decyl-L-arabinamine]
- Foamability (mL) after (min) 1 [4]: 3 mL
- Foamability (mL) after (min) 5 [4]: 3 mL
- Foamability (mL) after (min) 10 [4]: 2 mL
- CMC (%) ([2]; Table E5.2): 0.2%
- Surface tension (nM/m) ([2]; Table E5.2): 33.7 mN/m
- Solubility [3]: 0.1%

Molecule: CCCCCCCCCCCCN(C)C[C@H](O)[C@@H](O)[C@@H](O)CO [Compound 25, N-methyl-N-dodecyl-L-arabinamine]
- FOAM ([1]; Table E4, pH > 7): ++
- Foamability (mL) after (min) 1 [4]: 5 mL
- Foamability (mL) after (min) 5 [4]: 5 mL
- Foamability (mL) after (min) 10 [4]: 4 mL
- CMC (%) ([2]; Table E4): 0.1%
- SURFACE TENSION [2, 7]: 26.2 mN/m
- CMC (%) ([2]; Table E5.2): 0.1%
- Surface tension (nM/m) ([2]; Table E5.2): 26.2 mN/m
- SOLUBILITY (H2O) ([3]; Table E4): 0.06%
- Solubility [3]: 0.06%

Molecule: CCCCCCCCCCN(C)C[C@H](O)[C@@H](O)[C@@H](O)[C@H](O)C(=O)O [Compound 25b, N-methyldecyl-D-galactaric acid amine]
- Foamability (mL) after (min) 1 [4]: 6 mL
- Foamability (mL) after (min) 5 [4]: 6 mL
- Foamability (mL) after (min) 10 [4]: 5 mL
- CMC (%) ([2]; Table E5.2): 0.06%
- Surface tension (nM/m) ([2]; Table E5.2): 32.85 mN/m
- Solubility [3]: 2%

Molecule: CCCCNC[C@H](O)[C@@H](O)[C@@H](O)CO [Compound 26, N-butyl-L-arabinamine, reference compound]
- FOAM ([1]; Table E4, pH not given): −
- CMC (%) ([2]; Table E4): 2%
- SURFACE TENSION [2, 7]: 45.8 mN/m
- SOLUBILITY (H2O) ([3]; Table E4): 6.67%

Molecule: CCCCCCNC[C@H](O)[C@@H](O)[C@@H](O)CO [Compound 27, N-hexyl-L-arabinamine, reference compound]
- FOAM ([1]; Table E4, pH not given): −
- CMC (%) ([2]; Table E4): 0.5%
- SURFACE TENSION [2, 7]: 30.3 mN/m
- SOLUBILITY (H2O) ([3]; Table E4): 0.75%
- Solubility [3]: 0.75%

Molecule: CCCCCCCCNC[C@H](O)[C@@H](O)[C@@H](O)CO [Compound 28, N-octyl-L-arabinamine, reference compound]
- FOAM ([1]; Table E4, pH not given): −

Molecule: O=C(O)CCCCCCCCCCNC[C@H](O)[C@@H](O)[C@@H](O)CO [Compound 29]
- FOAM ([1]; Table E4, pH not given): −
- CMC (%) ([2]; Table E4): 1%
- SURFACE TENSION [2, 7]: 56.1 mN/m
- SOLUBILITY (H2O) ([3]; Table E4): 1%

Molecule: CCCCCCCCNC[C@H](O)[C@@H](O)[C@@H](O)[C@H](O)C(=O)O [Compound 33, N-octyl-D-galacturonic acid amine, reference compound]
- FOAM ([1]; Table E5, pH not given): −
- CMC (%) ([2]; Table E5): 1%
- SURFACE TENSION [2, 8]: 45.1 mN/m
- solubility in H2O [3]: 1%
- SOLUBILITY (H2O) ([3]; Table E5): 1%
- Solubility [3]: 1%

Molecule: CCCCCCCCCCNC[C@H](O)[C@@H](O)[C@@H](O)[C@H](O)C(=O)O [Compound 33b, N-decyl-D-galacturonic acid amine]
- Solubility [3]: 0.55%

Molecule: CCCCCCCCCCCCNC[C@H](O)[C@@H](O)[C@@H](O)[C@H](O)C(=O)O [Compound 34, N-dodecyl-D-galacturonic acid amine, reference compound]
- FOAM ([1]; Table E5, pH not given): −
- CMC (%) ([2]; Table E5): 0.1%
- SURFACE TENSION [2, 8]: 30.7 mN/m
- SOLUBILITY (H2O) ([3]; Table E5): 0.3%
- Solubility [3]: 0.3%

Molecule: CCCCCCCC(C)NC[C@H](O)[C@@H](O)[C@@H](O)[C@H](O)C(=O)O (stereo partly drawn) [Compound 35, N-(1-methyloctyl)-D-galacturonic acid amine]
- FOAM ([1]; Table E5, pH not given): −
- SOLUBILITY (H2O) ([3]; Table E5): 0.9%

Molecule: CCCCCCCCCCCCN(C)C[C@H](O)[C@@H](O)[C@H](O)[C@H](O)CO [Compound 50, 1-(N-methyl-N-dodecyl)-D-glucosamine]
- solubility in H2O [3]: 0%

Molecule: CCCCCCCCCCCCOS(=O)(=O)[O-].[Na+] [SLS, reference compound]
- concentration at which the surface tension is reached [2]: 0.02%
